Measurements from the kinase profiling compilation of Christmann-Franck et al. (2016).

Columns and labels:
Test in all cases: KINOMEscan competition binding
Details in all cases: compound 10.0 µM
BMPR2 (human) = BMPR2 (human) (UniProt Q13873)
GRK4 (human) = GRK4 (human) (UniProt P32298)
CDC42BPB (human) = CDC42BPB (human) (UniProt Q9Y5S2)
EPHA3 (human) = EPHA3 (human) (UniProt P29320)
[1] = tested on: PIK3CA (human), P42336 [H1047L]
ERN1 (human) = ERN1 (human) (UniProt O75460)
RPS6KA6 KD2 (human) = RPS6KA6 KD2 (human) (UniProt Q9UK32)
MAPK1 (human) = MAPK1 (human) (UniProt P28482)
ALK (human) = ALK (human) (UniProt Q9UM73)
CRK2 (P.falciparum) = CRK2 (P.falciparum) (UniProt P61075)
STK35 (human) = STK35 (human) (UniProt Q8TDR2)
PLK2 (human) = PLK2 (human) (UniProt Q9NYY3)
PAK3 (human) = PAK3 (human) (UniProt O75914)
CDK4 CCND1 (human) = CDK4 CCND1 (human) (UniProt P11802+P24385)
CHEK2 (human) = CHEK2 (human) (UniProt O96017)
ERBB4 (human) = ERBB4 (human) (UniProt Q15303)
DCLK3 (human) = DCLK3 (human) (UniProt Q9C098)
MAP4K3 (human) = MAP4K3 (human) (UniProt Q8IVH8)
STK38 (human) = STK38 (human) (UniProt Q15208)
LYN (human) = LYN (human) (UniProt P07948)
RPS6KA4 KD1 (human) = RPS6KA4 KD1 (human) (UniProt O75676)
STK17B (human) = STK17B (human) (UniProt O94768)
CLK1 (human) = CLK1 (human) (UniProt P49759)
ERBB3 (human) = ERBB3 (human) (UniProt P21860)
SBK1 (human) = SBK1 (human) (UniProt Q52WX2)
MAP3K10 (human) = MAP3K10 (human) (UniProt Q02779)
PRKD3 (human) = PRKD3 (human) (UniProt O94806)
FGFR4 (human) = FGFR4 (human) (UniProt P22455)
RIPK1 (human) = RIPK1 (human) (UniProt Q13546)
[2] = tested on: PIK3CA (human), P42336 [E542K]
PTK2B (human) = PTK2B (human) (UniProt Q14289)
TLK2 (human) = TLK2 (human) (UniProt Q86UE8)
MELK (human) = MELK (human) (UniProt Q14680)
FLT3 (human) = FLT3 (human) (UniProt P36888)
MYLK (human) = MYLK (human) (UniProt Q15746)
MAPK6 (human) = MAPK6 (human) (UniProt Q16659)
[3] = biological target: JAK1 JH2 pseudokinase (human) (UniProt P23458)
[4] = biological target: TYK2 JH1 catalytic (human) (UniProt P29597)
MLTK (human) = MLTK (human) (UniProt Q9NYL2)
RPS6KA3 KD1 (human) = RPS6KA3 KD1 (human) (UniProt P51812)

Sequence of MAPK6 (human) (Q16659 whole entry, looked up): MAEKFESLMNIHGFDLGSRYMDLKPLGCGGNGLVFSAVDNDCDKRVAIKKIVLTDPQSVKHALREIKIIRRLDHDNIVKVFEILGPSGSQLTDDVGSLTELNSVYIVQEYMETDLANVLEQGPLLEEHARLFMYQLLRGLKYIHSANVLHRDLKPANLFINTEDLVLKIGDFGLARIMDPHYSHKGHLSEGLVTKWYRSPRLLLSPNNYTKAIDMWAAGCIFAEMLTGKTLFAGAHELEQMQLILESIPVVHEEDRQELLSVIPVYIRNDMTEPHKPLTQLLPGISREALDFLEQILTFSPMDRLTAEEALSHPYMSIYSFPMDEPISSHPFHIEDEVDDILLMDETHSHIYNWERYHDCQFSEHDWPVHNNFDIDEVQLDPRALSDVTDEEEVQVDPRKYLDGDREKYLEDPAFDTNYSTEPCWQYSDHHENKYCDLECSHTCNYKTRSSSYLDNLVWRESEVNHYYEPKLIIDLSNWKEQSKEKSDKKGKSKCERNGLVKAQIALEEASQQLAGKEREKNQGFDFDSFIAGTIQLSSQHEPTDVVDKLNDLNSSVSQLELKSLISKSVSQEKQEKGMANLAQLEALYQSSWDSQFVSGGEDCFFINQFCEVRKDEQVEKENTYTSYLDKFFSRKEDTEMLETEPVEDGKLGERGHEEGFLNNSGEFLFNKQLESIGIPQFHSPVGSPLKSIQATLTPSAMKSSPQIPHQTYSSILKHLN
Sequence of SBK1 (human) (Q52WX2 whole entry, looked up): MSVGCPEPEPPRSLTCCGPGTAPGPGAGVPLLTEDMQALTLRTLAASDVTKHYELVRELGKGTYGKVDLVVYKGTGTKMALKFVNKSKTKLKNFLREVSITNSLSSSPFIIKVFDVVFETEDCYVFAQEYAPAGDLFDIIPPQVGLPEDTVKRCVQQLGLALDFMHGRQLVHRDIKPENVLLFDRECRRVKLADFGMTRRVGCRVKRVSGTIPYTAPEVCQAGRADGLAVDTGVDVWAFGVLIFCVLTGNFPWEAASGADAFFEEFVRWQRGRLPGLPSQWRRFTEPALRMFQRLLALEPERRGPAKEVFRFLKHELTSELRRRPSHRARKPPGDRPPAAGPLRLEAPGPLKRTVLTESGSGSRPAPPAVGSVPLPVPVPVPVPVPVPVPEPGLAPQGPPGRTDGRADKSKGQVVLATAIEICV
Sequence of MYLK (human) (Q15746 whole entry, looked up): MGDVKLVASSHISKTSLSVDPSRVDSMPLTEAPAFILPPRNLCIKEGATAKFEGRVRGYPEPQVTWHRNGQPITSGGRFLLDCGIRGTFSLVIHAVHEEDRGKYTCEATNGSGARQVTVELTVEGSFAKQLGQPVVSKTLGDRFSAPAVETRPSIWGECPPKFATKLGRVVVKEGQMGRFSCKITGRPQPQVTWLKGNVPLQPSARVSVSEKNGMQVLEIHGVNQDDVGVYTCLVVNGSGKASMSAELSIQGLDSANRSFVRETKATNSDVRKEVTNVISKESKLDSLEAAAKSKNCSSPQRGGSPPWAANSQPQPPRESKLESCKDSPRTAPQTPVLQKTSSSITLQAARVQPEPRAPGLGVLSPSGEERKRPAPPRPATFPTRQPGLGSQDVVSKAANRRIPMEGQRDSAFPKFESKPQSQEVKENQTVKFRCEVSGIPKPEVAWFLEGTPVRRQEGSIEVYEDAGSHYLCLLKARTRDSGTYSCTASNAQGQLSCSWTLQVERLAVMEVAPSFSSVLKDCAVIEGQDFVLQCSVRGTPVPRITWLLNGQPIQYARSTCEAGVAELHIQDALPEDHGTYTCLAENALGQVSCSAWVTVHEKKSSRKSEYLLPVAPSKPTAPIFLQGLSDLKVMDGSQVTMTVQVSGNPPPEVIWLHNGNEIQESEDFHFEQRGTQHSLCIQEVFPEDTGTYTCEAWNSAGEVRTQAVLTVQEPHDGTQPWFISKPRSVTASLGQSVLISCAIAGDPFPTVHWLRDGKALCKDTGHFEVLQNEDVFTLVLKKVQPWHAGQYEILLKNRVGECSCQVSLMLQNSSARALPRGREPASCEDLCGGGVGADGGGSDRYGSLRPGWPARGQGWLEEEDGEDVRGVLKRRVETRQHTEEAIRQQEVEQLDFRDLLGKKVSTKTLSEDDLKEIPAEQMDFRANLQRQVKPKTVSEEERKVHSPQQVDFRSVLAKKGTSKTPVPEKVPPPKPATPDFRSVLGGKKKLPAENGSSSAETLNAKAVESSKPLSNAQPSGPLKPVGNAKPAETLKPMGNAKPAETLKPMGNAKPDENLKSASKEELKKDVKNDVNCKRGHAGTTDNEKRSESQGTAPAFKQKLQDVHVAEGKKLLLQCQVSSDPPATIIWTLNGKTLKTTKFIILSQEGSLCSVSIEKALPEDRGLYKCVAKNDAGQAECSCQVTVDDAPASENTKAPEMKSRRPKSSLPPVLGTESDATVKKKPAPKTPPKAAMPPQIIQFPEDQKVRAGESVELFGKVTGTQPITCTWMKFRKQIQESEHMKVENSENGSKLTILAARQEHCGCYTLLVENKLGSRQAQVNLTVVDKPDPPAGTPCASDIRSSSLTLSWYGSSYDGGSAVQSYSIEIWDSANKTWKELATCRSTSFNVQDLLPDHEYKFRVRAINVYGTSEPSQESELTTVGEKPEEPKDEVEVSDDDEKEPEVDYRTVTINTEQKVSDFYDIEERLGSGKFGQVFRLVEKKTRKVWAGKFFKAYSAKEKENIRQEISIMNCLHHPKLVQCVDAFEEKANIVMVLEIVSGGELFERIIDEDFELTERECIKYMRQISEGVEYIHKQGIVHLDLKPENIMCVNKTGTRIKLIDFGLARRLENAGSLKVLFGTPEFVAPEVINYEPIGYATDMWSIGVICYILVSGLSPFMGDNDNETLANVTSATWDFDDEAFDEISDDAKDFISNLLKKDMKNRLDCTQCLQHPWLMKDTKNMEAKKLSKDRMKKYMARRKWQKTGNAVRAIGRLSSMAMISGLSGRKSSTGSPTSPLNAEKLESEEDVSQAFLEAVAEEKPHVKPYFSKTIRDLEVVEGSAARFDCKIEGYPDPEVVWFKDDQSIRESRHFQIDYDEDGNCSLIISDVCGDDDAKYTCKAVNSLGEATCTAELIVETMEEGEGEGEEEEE
Sequence of MAP4K3 (human) (Q8IVH8 whole entry, looked up): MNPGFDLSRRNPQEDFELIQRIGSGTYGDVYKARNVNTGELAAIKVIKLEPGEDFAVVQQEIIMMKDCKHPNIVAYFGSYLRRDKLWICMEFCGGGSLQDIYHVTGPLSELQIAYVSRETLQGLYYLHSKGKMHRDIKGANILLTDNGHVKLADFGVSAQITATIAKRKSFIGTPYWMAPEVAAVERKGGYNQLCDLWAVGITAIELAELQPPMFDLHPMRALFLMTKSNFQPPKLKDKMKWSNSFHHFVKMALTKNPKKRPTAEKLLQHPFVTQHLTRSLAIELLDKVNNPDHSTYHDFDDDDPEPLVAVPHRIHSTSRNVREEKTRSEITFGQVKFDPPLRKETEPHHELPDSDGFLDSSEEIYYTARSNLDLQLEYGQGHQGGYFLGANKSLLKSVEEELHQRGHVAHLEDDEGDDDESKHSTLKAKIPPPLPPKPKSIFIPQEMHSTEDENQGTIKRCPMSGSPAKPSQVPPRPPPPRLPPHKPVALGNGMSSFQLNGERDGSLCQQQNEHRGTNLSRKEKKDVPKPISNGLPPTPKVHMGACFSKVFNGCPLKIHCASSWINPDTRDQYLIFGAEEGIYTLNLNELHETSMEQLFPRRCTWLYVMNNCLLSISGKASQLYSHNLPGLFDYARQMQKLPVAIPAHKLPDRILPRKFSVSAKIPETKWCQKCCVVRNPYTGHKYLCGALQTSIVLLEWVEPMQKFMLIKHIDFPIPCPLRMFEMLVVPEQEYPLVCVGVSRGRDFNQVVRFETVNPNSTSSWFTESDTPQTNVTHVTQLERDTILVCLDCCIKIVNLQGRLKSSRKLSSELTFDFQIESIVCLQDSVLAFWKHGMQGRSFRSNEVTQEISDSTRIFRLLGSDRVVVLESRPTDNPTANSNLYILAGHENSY
Sequence of MAPK1 (human) (P28482 whole entry, looked up): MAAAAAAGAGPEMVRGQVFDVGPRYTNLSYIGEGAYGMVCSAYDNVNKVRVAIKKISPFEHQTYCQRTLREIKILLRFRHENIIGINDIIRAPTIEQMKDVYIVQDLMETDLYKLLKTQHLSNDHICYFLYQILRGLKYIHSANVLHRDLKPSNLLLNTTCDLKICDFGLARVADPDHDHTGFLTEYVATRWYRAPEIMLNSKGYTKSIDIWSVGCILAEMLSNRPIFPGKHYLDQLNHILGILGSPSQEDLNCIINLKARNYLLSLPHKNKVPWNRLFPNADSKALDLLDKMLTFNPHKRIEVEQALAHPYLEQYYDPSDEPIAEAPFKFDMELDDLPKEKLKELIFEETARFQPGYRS
Sequence of RPS6KA4 KD1 (human) (O75676 whole entry, looked up): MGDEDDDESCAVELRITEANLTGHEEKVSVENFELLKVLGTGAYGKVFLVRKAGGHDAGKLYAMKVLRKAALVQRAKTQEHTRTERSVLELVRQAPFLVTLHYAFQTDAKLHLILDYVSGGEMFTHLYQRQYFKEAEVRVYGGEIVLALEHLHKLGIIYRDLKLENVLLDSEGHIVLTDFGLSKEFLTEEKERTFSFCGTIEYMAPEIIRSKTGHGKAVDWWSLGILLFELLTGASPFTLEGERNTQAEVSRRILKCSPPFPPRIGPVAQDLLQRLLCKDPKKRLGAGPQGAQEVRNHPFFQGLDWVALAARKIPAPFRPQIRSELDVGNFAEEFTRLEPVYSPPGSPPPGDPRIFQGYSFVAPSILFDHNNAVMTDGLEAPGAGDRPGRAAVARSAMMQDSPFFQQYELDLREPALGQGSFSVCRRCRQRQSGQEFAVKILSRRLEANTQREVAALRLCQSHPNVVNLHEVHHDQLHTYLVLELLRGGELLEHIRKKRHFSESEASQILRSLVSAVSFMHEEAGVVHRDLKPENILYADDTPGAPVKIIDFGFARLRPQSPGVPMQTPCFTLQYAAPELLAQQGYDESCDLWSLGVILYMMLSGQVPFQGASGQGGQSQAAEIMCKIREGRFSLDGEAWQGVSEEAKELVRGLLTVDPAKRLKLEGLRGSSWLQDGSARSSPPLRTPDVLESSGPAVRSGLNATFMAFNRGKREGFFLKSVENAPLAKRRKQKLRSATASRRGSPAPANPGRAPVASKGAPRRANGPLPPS

| SMILES | kinase still bound, per cent of control (GRK4 (human)) [%] | kinase still bound, per cent of control (CDC42BPB (human)) [%] | kinase still bound, per cent of control (EPHA3 (human)) [%] | kinase still bound, per cent of control [1] [%] | kinase still bound, per cent of control (ERN1 (human)) [%] | kinase still bound, per cent of control (RPS6KA6 KD2 (human)) [%] | kinase still bound, per cent of control (MAPK1 (human)) [%] | kinase still bound, per cent of control (ALK (human)) [%] | kinase still bound, per cent of control (STK35 (human)) [%] | kinase still bound, per cent of control (PLK2 (human)) [%] | kinase still bound, per cent of control (PAK3 (human)) [%] | kinase still bound, per cent of control (ERBB4 (human)) [%] | kinase still bound, per cent of control (DCLK3 (human)) [%] | kinase still bound, per cent of control (MAP4K3 (human)) [%] | kinase still bound, per cent of control (STK38 (human)) [%] | kinase still bound, per cent of control (RPS6KA4 KD1 (human)) [%] | kinase still bound, per cent of control (CLK1 (human)) [%] | kinase still bound, per cent of control (SBK1 (human)) [%] | kinase still bound, per cent of control (MAP3K10 (human)) [%] | kinase still bound, per cent of control (PRKD3 (human)) [%] | also measured |
| --- | --- | --- | --- | --- | --- | --- | --- | --- | --- | --- | --- | --- | --- | --- | --- | --- | --- | --- | --- | --- | --- |
| COc1cc2c(Nc3ccc(NC(=O)c4ccccc4)cc3)ncnc2cc1OCCCN1CCOCC1 | 100 | 100 | 60 | 99 | 74 | 71 | 72 | 26 | 64 | 100 | 87 | 0.65 | 96 | 70 | 92 | 100 | 100 | 92 | 86 | 100 | kinase still bound, per cent of control (BMPR2 (human)): 81%; kinase still bound, per cent of control (CRK2 (P.falciparum)): 100%; kinase still bound, per cent of control (CDK4 CCND1 (human)): 93%; kinase still bound, per cent of control (CHEK2 (human)): 100%; kinase still bound, per cent of control (LYN (human)): 7.2%; kinase still bound, per cent of control (STK17B (human)): 100%; kinase still bound, per cent of control (ERBB3 (human)): 1%; kinase still bound, per cent of control (FGFR4 (human)): 100%; kinase still bound, per cent of control (RIPK1 (human)): 100%; kinase still bound, per cent of control [2]: 100%; kinase still bound, per cent of control (PTK2B (human)): 98%; kinase still bound, per cent of control (TLK2 (human)): 100%; kinase still bound, per cent of control (MELK (human)): 42%; kinase still bound, per cent of control (FLT3 (human)): 8.8%; kinase still bound, per cent of control (MYLK (human)): 92%; kinase still bound, per cent of control (MAPK6 (human)): 100%; kinase still bound, per cent of control [3]: 32%; kinase still bound, per cent of control [4]: 84%; kinase still bound, per cent of control (MLTK (human)): 34% |
| CC(=O)c1c(C)c2cnc(Nc3ccc(N4CCNCC4)cn3)nc2n(C2CCCC2)c1=O | 26 | 91 | 66 | 25 | 34 | 38 | 73 | 38 | 66 | 14 | 20 | 83 | 9.6 | 20 | 57 | 75 | 1.2 | 36 | 93 | 0.75 | kinase still bound, per cent of control (CRK2 (P.falciparum)): 19%; kinase still bound, per cent of control (CDK4 CCND1 (human)): 0%; kinase still bound, per cent of control (RPS6KA3 KD1 (human)): 28%; kinase still bound, per cent of control (RIPK1 (human)): 65%; kinase still bound, per cent of control (PTK2B (human)): 31%; kinase still bound, per cent of control (TLK2 (human)): 89%; kinase still bound, per cent of control (MELK (human)): 40%; kinase still bound, per cent of control (FLT3 (human)): 35%; kinase still bound, per cent of control (MYLK (human)): 20%; kinase still bound, per cent of control (MAPK6 (human)): 57%; kinase still bound, per cent of control [4]: 18% |
| CCOc1cc(N2CCC(O)CC2)ccc1Nc1ncc2c(n1)N(C)c1ccccc1C(=O)N2C | 100 | 100 | 100 | 100 | 100 | 31 | 100 | 29 | 100 | 100 | 100 | 100 | 100 | 100 | 100 | 100 | 100 | 100 | 100 | 100 | kinase still bound, per cent of control (BMPR2 (human)): 100%; kinase still bound, per cent of control (CHEK2 (human)): 100%; kinase still bound, per cent of control (LYN (human)): 100%; kinase still bound, per cent of control (RPS6KA3 KD1 (human)): 100%; kinase still bound, per cent of control (STK17B (human)): 100%; kinase still bound, per cent of control (ERBB3 (human)): 100%; kinase still bound, per cent of control (FGFR4 (human)): 100%; kinase still bound, per cent of control (RIPK1 (human)): 100%; kinase still bound, per cent of control [2]: 100%; kinase still bound, per cent of control (PTK2B (human)): 100%; kinase still bound, per cent of control (TLK2 (human)): 100%; kinase still bound, per cent of control (MELK (human)): 100%; kinase still bound, per cent of control (FLT3 (human)): 100%; kinase still bound, per cent of control (MYLK (human)): 100%; kinase still bound, per cent of control (MAPK6 (human)): 100%; kinase still bound, per cent of control [3]: 100%; kinase still bound, per cent of control [4]: 100%; kinase still bound, per cent of control (MLTK (human)): 100% |
| N#C/C(=C1/Nc2ccccc2S1)c1ccnc(NCCc2cccnc2)n1 | 32 | 81 | 73 | 85 | 79 | 52 | 84 | 100 | 85 | 47 | 100 | 63 | 100 | 80 | 91 | 100 | 69 | 94 | 85 | 84 | kinase still bound, per cent of control (BMPR2 (human)): 88%; kinase still bound, per cent of control (CRK2 (P.falciparum)): 100%; kinase still bound, per cent of control (CDK4 CCND1 (human)): 32%; kinase still bound, per cent of control (CHEK2 (human)): 94%; kinase still bound, per cent of control (LYN (human)): 100%; kinase still bound, per cent of control (STK17B (human)): 100%; kinase still bound, per cent of control (ERBB3 (human)): 36%; kinase still bound, per cent of control (FGFR4 (human)): 100%; kinase still bound, per cent of control (RIPK1 (human)): 100%; kinase still bound, per cent of control [2]: 100%; kinase still bound, per cent of control (PTK2B (human)): 89%; kinase still bound, per cent of control (TLK2 (human)): 75%; kinase still bound, per cent of control (MELK (human)): 100%; kinase still bound, per cent of control (FLT3 (human)): 100%; kinase still bound, per cent of control (MYLK (human)): 66%; kinase still bound, per cent of control (MAPK6 (human)): 26%; kinase still bound, per cent of control [3]: 2.6%; kinase still bound, per cent of control [4]: 22%; kinase still bound, per cent of control (MLTK (human)): 97% |
